Where a name gives a salt, the structure may show the parent alone. Read-outs that look alike come from different tables or passages of the source.
Key:
HepG2 cells = assay: Increase in LDL-binding to HepG2 cells; type: cell-based; conditions: 10 μM test compound, 20 hours, specific human [125I]LDL binding, normalized by protein, read-out: LDL binding (% of control)
Procedure: Increase in LDL-binding to HepG2 cells LDL-binding was measured according to the method of J. L. Goldstein. HepG2 cells were purchased from ATCC (American type culture collection) and seeded in 6-well plate with collagen coating (Sumitomo Bakelite), and cultured in Eagle's minimum essential medium (MEM) containing 10%-fetal bovine serum at 37° C. for 4 days. […] After washing with phosphate buffered saline cells were incubated with MEM containing 25 mM-HEPES and 1%-bovine serum albumin (fatty acid free) in the presence of human [^125 I]LDL (4 μg/ml) at 6° C. for 2 hours. After washing cells bound [^125 I]LDL was dissociated with dextran sulfate and the radioactivity was measured (total binding). [^125 I]LDL binding to cells was also measured in the presence of LDL (300 μg/ml) as a non-specific binding (NSB). Specific [^125 I]LDL-binding was calculated by subtracting NSB from total binding and was normalized by protein content measured by the method of lowry. Data was expressed as percentage of the control.

Wistar fatty rats = assay: Lipid-lowering effect in Wistar fatty rats; type: in vivo, Wistar fatty rat; conditions: 30 mg/kg/day by stomach tube, 2 weeks, plasma, Mean ± SD (n = 6)
Procedure: Lipid-lowering effect in Wistar fatty rats
Male Waistar fatty rats were maintained on free access to normal diet (CE-2, Clea Japan) and water. Body weights were measured at 10 weeks of age and the blood was taken from the orbital sinus and determined for plasma total cholesterol (TC), triglyceride (TG), glucose, and HDL-cholesterol (HDL-C) with Wako Pure Chemical and Kyowa Medex kits using an automatic analyzer (Hitachi 7070). Non-HDL-cholesterol (non-HDL-C) was calculated by subtracting HDL-cholesterol from total cholesterol.
The rats were divided into 2 groups (n=6) and 30 mg/kg/day of the test compound (Example 22) in 0.5% methylcellulose solution was administered by a stomach tube to one of the groups once daily for 2 weeks (test group). 0.5% Methylcellulose solution only was similarly administered to the other group (control group). On day 14, body weights were measured again and the blood was taken from the orbital sinus and determined for plasma total cholesterol, HDL-cholesterol, triglyceride, and glucose in the same manner as before.

Golden Syrian hamsters = assay: Cholesterol lowering activity in Golden hamster; type: in vivo, Golden Syrian hamster; conditions: Mesocricetus auratus, po, 96 h, 20 mg/kg/d orally, once daily for 4 days
Procedure: Cholesterol lowering activity in Golden hamster Male Golden Syrian hamsters (110-130 g) were maintained freely on water and a laboratory diet (CE-2, Clea Japan Inc., Tokyo). […] Blood was taken from orbital sinus and plasma total cholesterol and triglyceride were measured an automatic analyzer (Hitachi 7070, Hitachi Ltd., Tokyo) using commercial kits (Wako Pure Chemical Industries, Osaka), and plasma HDL-cholesterol using a commercial kit (Kyowa Medex Co., Ltd., Tokyo) before and after the treatment of compound. Non-HDL cholesterol was calculated by subtracting HDL-cholesterol from total cholesterol. |Non-HDL-C (non-HDL-cholesterol): [total cholesterol]-[HDL-cholesterol] |TG: triglyceride

[1] = plasma triglyceride, read-out: TG (% of control)
[2] = plasma, [total cholesterol]-[HDL-cholesterol], read-out: Non-HDL-C (% of control)

| SMILES | activity at 10 µM (HepG2 cells) | TG (Wistar fatty rats; * P < 0.05 vs control group (324.7 ± 74.2)) | Glucose (Wistar fatty rats; * P < 0.05 vs control group (366.8 ± 72.0)) | Non-HDL-C (Wistar fatty rats; ** P < 0.01 vs control group (39.9 ± 3.7)) | response vs control in vivo at 20 mg/kg (Golden Syrian hamsters; [1]) | response vs control in vivo at 20 mg/kg (Golden Syrian hamsters; [2]) |
| --- | --- | --- | --- | --- | --- | --- |
| O=C(NCC1CCN(CCCc2ccccc2)CC1)C1=Cc2cnc3cccc(n23)S1 [Example 22, N-[1-(3-phenylpropan-1-yl)piperidin-4-ylmethyl]-5-thia-1,8b-diazaacenaphthylene-4-carboxamide Dihydrochloride] | 126% | 258.3 ± 38.4 mg/dL | 268.2 ± 81.9 mg/dL | 30.0 ± 5.2 mg/dL | 62.3% | 58.8% |
| O=C(NCC1CCN(CCCc2ccc(F)cc2F)CC1)C1=Cc2cnc3cccc(n23)S1 [Example 76, N-[1-(3-(2,4-difluorophenyl)propan-1-yl)piperidin-4-ylmethyl]-5-thia-1,8b-diazaacenaphthylene-4-carboxamide Dihydrochloride] | 282% |  |  |  | 58.1% | 74% |
